Here are results for five molecules from patent US6552007B2, “Use of somatostatin analogs for the delivery of anti-tumor drugs to tumor cells” (priority 2000, dated 2003).

Like-named read-outs stand apart in the source and are kept apart here. Where a SMILES comes first, the peptide text is derived from it. Bridges are numbered along the chain shown (N, C = ends). [ ]: non-standard residue; d: D form.

Experiment [1] deals with human somatostatin receptors subtype 2 (Homo sapiens, UniProt P30874). The following applies: cited from earlier work.
Sequence of human somatostatin receptors subtype 2 (P30874 whole entry): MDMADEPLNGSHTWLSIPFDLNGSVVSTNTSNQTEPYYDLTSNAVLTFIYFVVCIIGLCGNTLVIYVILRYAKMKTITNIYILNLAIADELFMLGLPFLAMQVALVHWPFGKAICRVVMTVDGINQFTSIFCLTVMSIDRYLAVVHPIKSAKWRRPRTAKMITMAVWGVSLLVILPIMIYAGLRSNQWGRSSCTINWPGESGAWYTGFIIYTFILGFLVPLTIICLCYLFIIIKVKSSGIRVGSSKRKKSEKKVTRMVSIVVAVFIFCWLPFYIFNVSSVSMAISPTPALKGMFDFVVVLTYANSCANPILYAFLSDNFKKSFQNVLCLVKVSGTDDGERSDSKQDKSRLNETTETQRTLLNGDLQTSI
For experiment [2], the system named is CHO cells. Kind of experiment: Cell death of CHO cells after 1 day treatment. Type of experiment: cell-based. The following applies: 10^−5 M.
Experiment [3] deals with MCF-7 cells. Put plainly: Cell death of MCF-7 cells after 1 day treatment. Type of experiment: cell-based. The following applies: 10^−5 M.
Experiment [4] deals with human somatostatin receptors subtype 4 (Homo sapiens, UniProt P31391). The following applies: cited from earlier work.
Sequence of human somatostatin receptors subtype 4 (P31391 whole entry): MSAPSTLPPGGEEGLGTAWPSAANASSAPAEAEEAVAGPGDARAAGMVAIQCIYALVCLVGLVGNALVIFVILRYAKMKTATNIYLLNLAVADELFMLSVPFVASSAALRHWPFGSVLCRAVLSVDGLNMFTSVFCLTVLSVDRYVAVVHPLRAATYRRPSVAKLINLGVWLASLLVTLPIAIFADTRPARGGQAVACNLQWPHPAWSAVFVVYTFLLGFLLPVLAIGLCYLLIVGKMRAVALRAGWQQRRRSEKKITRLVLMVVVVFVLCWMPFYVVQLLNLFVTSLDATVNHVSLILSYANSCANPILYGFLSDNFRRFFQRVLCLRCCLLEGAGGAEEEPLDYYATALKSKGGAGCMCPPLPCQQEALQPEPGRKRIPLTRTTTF
Experiment [5] deals with MCF-7 cells. Put plainly: Internalization of labeled octreotide by MCF-7 cells (somatostatin receptor-mediated endocytosis). Format: cell-based. Particulars: one hour incubation, 100 μg/ml, 37° C.
Experiment [6] relates to CHO cells. The following applies: 30 min, 4° C.; for binding (fluorescence labeling) to CHO cells: 100 μg in 1 ml buffer; for binding to CHO cells at higher concentration of labeled octreotide: higher concentration (500 μg/ml). The method, then:
FIG. 2 depicts fluorescence micrographs of MCF-7 and CHO cells after incubation with fluorescin-octreotide at 4° C. for 30 min. […] Cell morphology was shown at A, C, E, and G. Bar=20 μm;
The MCF-7 cells and CHO cells are inclubated with 100 μg of fluorescein labeled octerotide in 1 ml of a buffer for 30 minutes at 4 ° C., after which the cells are washed with PBS, fixed with 4% paraformaldehye and subject to fluorescence microscopy.

The test system of experiment [7] is MCF-7 cells. Kind of experiment: Fluorescence microscopy binding of fluorescein-labeled octreotide to MCF-7 cells. The following applies: 30 min, 4° C.; for binding (fluorescence labeling) to MCF-7 cells: 100 μg in 1 ml buffer.
Experimental: Panels B, D, F and H which correspond to panels A, C, E and G, respectively, show the fluorescence labeled octreotide binding to the MCF-7 cells and the CHO. The MCF-7 cells and CHO cells are inclubated with 100 μg of fluorescein labeled octerotide in 1 ml of a buffer for 30 minutes at 4 ° C., after which the cells are washed with PBS, fixed with 4% paraformaldehye and subject to fluorescence microscopy.
Experiment [8] relates to MCF-7 cells. The following applies: paclitaxel at 10^−6 M, 1 day.
Setting [9] is: listed as fluorescin-octreotide.

For `C[C@@H](O)[C@@H]1NC(=O)[C@H](CCCCN)NC(=O)[C@@H](Cc2c[nH]c3ccccc23)NC(=O)[C@H](Cc2ccccc2)NC(=O)[C@@H](NC(=O)[C@H](N)Cc2ccccc2)CSSC[C@@H](C(=O)N[C@H](CO)[C@@H](C)O)NC1=O` [octreotide, D-Phe-c[Cys-Phe-D-Trp-Lys-Thr-Cys]-Thr(ol)], the “affinity to human somatostatin receptor subtype 2” value in experiment [1] is reported as “high affinities”.
Turning to `CC(=O)O[C@H]1C(=O)[C@@]2(C)[C@H]([C@H](OC(=O)c3ccccc3)[C@]3(O)C[C@H](OC(=O)[C@H](O)[C@@H](NC(=O)c4ccccc4)c4ccccc4)C(C)=C1C3(C)C)[C@]1(OC(C)=O)CO[C@@H]1C[C@@H]2O` [paclitaxel, reference compound], in the experiment with CHO cells [2], the “death of CHO cells” value was “causes death of both MCF-7 cells and CHO cells”. Further, the “death of MCF-7 cells” value with MCF-7 cells [3] was “causes death of both MCF-7 cells and CHO cells”.
`CC(C)[C@@H]1NC(=O)[C@H](CCCCN)NC(=O)[C@@H](Cc2c[nH]c3ccccc23)NC(=O)[C@H](Cc2ccc(O)cc2)NC(=O)[C@@H](NC(=O)[C@H](N)Cc2ccccc2)CSSC[C@@H](C(=O)N[C@@H](Cc2c[nH]c3ccccc23)C(N)=O)NC1=O` [vapreotide, D-Phe-c[Cys-Tyr-D-Trp-Lys-Val-Cys]-Trp-NH2] (H-[dF]CY[dW]KVCW-NH2; disulfide 2-7): the “affinity to human somatostatin receptor subtype 4” value in experiment [4] is reported as “high affinities”.
“Fluorescein-Octreotide [labeled octreotide]”: the “internalization into MCF-7 cytosol” value in the experiment on MCF-7 cells [5] is listed as “internalized into the MCF-7 cytosol”; in the experiment with MCF-7 cells [5] (setting [9]) it was “internalization”. Besides, the “binding (fluorescence labeling) to CHO cells” value with CHO cells [6] is “not to the CHO cells”; in the experiment on CHO cells [6] (setting [9]) it was “No labeling can be seen among the CHO cells”. Moreover, the “binding to CHO cells at higher concentration of labeled octreotide” value is reported as “does not bind to the CHO cells” in the experiment on CHO cells [6] and “No labeling” with CHO cells [6] (setting [9]). Moreover, the “binding (fluorescence labeling) to MCF-7 cells” value is listed as “binds to the MCF-7 cells” in the experiment on MCF-7 cells [7] and “labeling is confined to the MCF-7 cell surface” in the experiment with MCF-7 cells [7] (setting [9]). Further, the “binding to MCF-7 cells in the presence of excessive non-labeled octreotide” value with MCF-7 cells [7] (excessive amount (1,000 fold) of nonfluorescent octreotide) was “disappears”.
As to “Paclitaxel-Glutary 1-Octreotide [octreotide conjugated paclitaxel]”, the “anti-tumor activity through disrupting microtubule formation, compared with non-conjugated paclitaxel” value in the experiment on MCF-7 cells [8] is recorded as “same anti- tumor activity through disrupting microtubule formation”; with MCF-7 cells [8] (listed as octreotide-conjugated taxol) it was “virtually retains the cellular functions of taxol”. In addition, the “death of CHO cells” value in the experiment with CHO cells [2] is listed as “not of the CHO cells”. The “cell specificity (MCF-7 versus CHO cells)” value in the experiment with MCF-7 cells [3] is “specific to MCF-7 cells”. Moreover, the “death of MCF-7 cells” value in the experiment with MCF-7 cells [3] is recorded as “induces only the death of the MCF-7 cells”.
